Experimental data from US9241993B2, “Inhibitors of branched-chain-aminotransferase-1 (BCAT1) for the treatment of brain tumors” (Deutsches Krebsforschungszentrum, priority 2011, dated 2016).

What was measured:
Format in all cases: cell-based, human
U-373MG cells = assay: 1H-NMR spectroscopy of cell extracts, intracellular BCAA levels; conditions: 20 mM gabapentin for 20 hours vs control
Method: (§1) (i) Treatment with dimethyl-α-ketoglutarate and Gabapentin 5×10^4 cells/well were seeded in 24-well plates in a total volume of 500 μl cell culture medium. The medium was removed 16 hours after seeding the cells, and replaced with 500 μl medium containing 5 mM or 10 mM dimethyl-α-ketoglutarate (Dimethyl 2-oxoglutarate; Sigma-Aldrich) or 5 mM, 10 mM or 20 mM gabapentin ([…]; Sigma-Aldrich). Corresponding volumes of 200 mM HEPES buffer (pH 7.4) were added to the respective control wells.
(§2) Cells were harvested by trypsinization, washed once with ice-cold PBS, and the cell pellet was frozen at −80° C. Typically 1×10^8 harvested cells were subjected to perchloric acid extraction followed by KOH neutralization according to published protocols^50. Briefly, 2 mL of ice-cold 1 N HClO4 were added to a frozen pellet of harvested cells. The pellet was disrupted using a Teflon pestle and a glass homogeniser. 1 mL of ice-cold water was added to the lysate, vortexed for 90 s and centrifuged at 10000×g for 10 min at 4° C. The pellet was re-extracted and the supernatants were combined. The extract was neutralised with KOH and the pH was adjusted to 6.5-7.0 Precipitated KClO4 was pelleted at 25000×g for 20 min and the supernatant was lyophilised.
(§3) The lyophilised extract residues were dissolved in 0.5 ml of a D2O buffer (99.9% D) containing 30 mM sodium phosphate and 0.1 mM sodium azide (pH 7.02). For quantitative analysis a reference capillary (1.5 mm OD, 0.99 mm ID) was filled with a solution of 11 mM trimethylsilyl-2,2,3,3-tetradeuteropropanoic acid (TSP, sodium salt) in the D2O buffer described above. Subsequently, the capillary was sealed in the flame of a Bunsen burner. A calibration solution was prepared by placing weighed amounts of glucose and citric acid in the D2O buffer to give the calculated concentrations of 10.49 mM glucose and 4.95 […]. ^1H-NMR spectra of the calibration solution+capillary were acquired at 600 MHz (Avance AV-600, Bruker BioSpin GmbH) using a standard 5-mm NMR tube and a triple-resonance inverse probe under the same conditions to be used for the extracts (20° C., presaturation of residual HDO signal, repetition time TR=7 s, 30° flip angle). […] Cell extracts were measured with the calibrated reference capillary inserted (512 transients in 1 hour), and the ^1H-NMR signals for the branched-chain amino acids, various metabolites, and the TSP reference were integrated. The TSP integral was defined as 4.60 mM so that the metabolite signal integrals gave directly the metabolite concentrations in mM (μmol/ml) for the 0.5 ml volumes used.

U-87MG cells = assay: as above; conditions: 20 mM gabapentin for 20 hours vs control
Method: as §1, §2, §3

[1] = tested on: glioblastoma cell lines U87-MG, HS683 and U373-MG; assay: Click-iT EdU cell proliferation assay after gabapentin treatment; conditions: concentration-dependent
Method: as §1
To assess the proliferation of glioma cells after treatment with gabapentin or after lentiviral knockdown, the Click-iT® EdU cell proliferation assay (Invitrogen, Karlsruhe, Germany) was used following the manufacturer's instructions. The cells were incubated with 10 μM of the nucleoside analog EdU (5-ethynyl-2′deoxyuridine) for 16 hours. Quantification of cells that incorporated EdU was performed using FACS Canto II (BD Biosciences).
The human glioblastoma cell lines U87-MG (HTB-14), HS683 (HTB-138) and U373-MG (HTB-17; LGC Standards, Teddington TW11 0LY U.K.) were cultured in Dulbecco's Minimal Essential Medium supplemented with 10% fetal calf serum and 1% penicillin/streptomycin-mix. 5×10^4 cells/well were seeded in 24 well plates in a total volume of 500 μl cell culture medium. […]

HS683 = assay: Cell-cycle analysis (propidium iodide, flow cytometry), sub-G1 fraction; conditions: HS683, 20 mM, 20 hours after treatment
Method: (§4) Cell-cycle analysis was performed 20 hours after treatment with gabapentin and 6 days after lentiviral transduction. Nicoletti buffer (0.1% sodium citrate, pH7.4, 0.05% Triton X-100, 50 μg propidium iodide) was added to the wells containing both dead and living cells. After 4 hours in the dark at 4° C., DNA content was analysed by flow cytometry using FACS Canto II (BD Biosciences, San Jose, Calif., USA). FACS Diva software was used to quantify the distribution of cells in each cell-cycle phase: sub-G1 (dead cells), G1, S, and G2/M. For investigation of apoptotic activity after lentivira knockdown NCH421k cells were incubated with annexin V-P (Phycoerythrin) and 7-AAD (7-aminoactinomycin D, BD Biosciences) for 15 minutes in the dark, immediately followed by flow cytometry.

U373-MG = assay: as above; conditions: 20 mM, 20 hours after treatment
Method: as §4

U87-MG = assay: as above; conditions: 20 mM, 20 hours after treatment
Method: as §4

glioma cells = assay: Glutamate quantification in supernatant of gabapentin-treated cells; conditions: 20 mM, 6 and 12 hours after start of treatment
Method: as §1
Glutamate concentration in the supernatant of cells treated with gabapentin was determined using the glutamine/glutamate determination Kit (GLN-1; Sigma-Aldrich) according to the manufacturer's instructions. The reaction volumes were scaled down to 100 μl total volume and absorbance was measured in triplicate in a microplate (Corning° 96 Well Clear Flat Bottom UV-Transparent Microplate) using a Tecan Infinite M200 plate reader (Tecan, Austria). Data were normalised to the number of cells per well.

glioma cell lines = assay: Cell-cycle analysis, G1 phase; conditions: gabapentin treatment, 20 hours
Method: as §4

BCAT1 expression = assay: BCAT1 RNA and protein expression (qRT-PCR, Western blot) in glioma cell lines; conditions: increasing concentration of dimethyl-alpha-KG in the culture medium (5 mM or 10 mM)
Method: Total RNA was extracted using the AllPrep DNA/RNA/Protein Mini Kit (Qiagen) according to the manufacturer's instructions. FirstChoice® Human Brain Reference Total RNA from Ambion served as normal brain RNA pool (n=23 donors). Total RNA (500 ng) was reverse-transcribed using random primers and superscript II (Invitrogen, Karlsruhe, Germany) according to the manufacturer's instructions. Each complimentary DNA sample was analysed in triplicate with the Applied Biosystems Prism 7900HT Fast Real-Time PCR System (Applied Biosystems, Foster City, Calif., USA) using Absolute SYBR Green ROX Mix (ABgene, Epsom, UK). The relative amount of specific mRNA was normalised to ARF, B2M and TBP.
All experiments involving the use of human tissues are carries out in line with the guidelines of the institutional review board of the Medical Faculty at Heinrich Heine University Dusseldorf. Fresh frozen human tumor tissue samples and a non-neoplastic brain tissue sample were lysed in guanidine isothiocyanate solution (4M) using an ULTRA-TURRAX (IKA, Staufen, Germany) and subjected to CsCl-ultracentrifugation. […]
Infection of glioma cells with virus at an M.O.I. of 2 was carried out in the presence of 8 μg/ml of polybrene (Chemicon, Billerica, Mass., USA). […] Quantification of BCAT1 and IDH1 knockdown was assessed by quantitative real-time PCR and Western blot. […]

| Structure (SMILES) | increase of isoleucine (Ile) level, factor (U-373MG cells) | increase of leucine (Leu) level, factor (U-373MG cells) | increase of valine (Val) level, factor (U-373MG cells) | increase of isoleucine (Ile) level, factor (U-87MG cells) | increase of leucine (Leu) level, factor (U-87MG cells) | increase of valine (Val) level, factor (U-87MG cells) | reduction of cell proliferation ([1]; 5, 10 and 20 mM, all cell lines, vs mock treated cells (Example 2)) | reduction of proliferation, estimated based on EdU-incorporation ([1]; 20 hours (Example 9, FIG. 6a)) | Average sub-G1 (HS683) [%] | Average sub-G1 (U373-MG) [%] | Average sub-G1 (U87-MG) [%] | Glutamate release (glioma cells) | cell cycle effect (fraction of cells in G1-phase) (glioma cell lines) | BCAT1 expression (BCAT1 expression) |
| --- | --- | --- | --- | --- | --- | --- | --- | --- | --- | --- | --- | --- | --- | --- |
| NCC1(CC(=O)O)CCCCC1 [Gabapentin, 1-(aminomethyl) cyclohexaneacetic acid] | 2.32 | 2.18 | 1.83 | 1.19 | 1.38 | 1.09 | 20-55% | up to 56% | 10.1 | 2.8 | 2.4 | significantly reduced | partial G1-arrest |  |
| COC(=O)CCC(=O)C(=O)OC [dimethyl-alpha-KG, Dimethyl 2-oxoglutarate] |  |  |  |  |  |  |  |  |  |  |  |  |  | upregulated |
